± gives the expanded uncertainty stated by the source.
Experiment: excess molar enthalpy (molar enthalpy of mixing); xn = mol fraction of the nth substance listed
Conditions: Liquid, Flow calorimetry

CCC(C)O (stereo not given) [butan-2-ol] + COC(=O)OC
Conditions | excess molar enthalpy [kcal/mol]
298.15 K, 1000 kPa, x2 = 0.05 | 0.126 ± 0.00454
298.15 K, 1000 kPa, x2 = 0.1 | 0.237 ± 0.00454
298.15 K, 1000 kPa, x2 = 0.15 | 0.328 ± 0.00454
298.15 K, 1000 kPa, x2 = 0.2 | 0.4 ± 0.00478
298.15 K, 1000 kPa, x2 = 0.25 | 0.459 ± 0.00478
298.15 K, 1000 kPa, x2 = 0.3 | 0.5033 ± 0.00502
298.15 K, 1000 kPa, x2 = 0.35 | 0.5352 ± 0.00502
298.15 K, 1000 kPa, x2 = 0.4 | 0.5549 ± 0.00502
298.15 K, 1000 kPa, x2 = 0.45 | 0.5664 ± 0.00502
298.15 K, 1000 kPa, x2 = 0.5 | 0.568 ± 0.00502
298.15 K, 1000 kPa, x2 = 0.55 | 0.5595 ± 0.00478
298.15 K, 1000 kPa, x2 = 0.6 | 0.5407 ± 0.00454
298.15 K, 1000 kPa, x2 = 0.65 | 0.5126 ± 0.0043
298.15 K, 1000 kPa, x2 = 0.7 | 0.4758 ± 0.00406
298.15 K, 1000 kPa, x2 = 0.75 | 0.43 ± 0.00359
298.15 K, 1000 kPa, x2 = 0.8 | 0.3661 ± 0.00311
298.15 K, 1000 kPa, x2 = 0.9 | 0.2152 ± 0.00186
298.15 K, 1000 kPa, x2 = 0.95 | 0.1148 ± 0.00108
313.15 K, 100 kPa, x2 = 0.051 | 0.124 ± 0.00454
313.15 K, 100 kPa, x2 = 0.102 | 0.238 ± 0.00454
313.15 K, 100 kPa, x2 = 0.148 | 0.323 ± 0.0043
313.15 K, 100 kPa, x2 = 0.202 | 0.412 ± 0.00454
313.15 K, 100 kPa, x2 = 0.251 | 0.4757 ± 0.0043
313.15 K, 100 kPa, x2 = 0.352 | 0.5707 ± 0.00502
313.15 K, 100 kPa, x2 = 0.4 | 0.6006 ± 0.00502
313.15 K, 100 kPa, x2 = 0.45 | 0.6191 ± 0.00502
313.15 K, 100 kPa, x2 = 0.501 | 0.6252 ± 0.00502
313.15 K, 100 kPa, x2 = 0.551 | 0.6211 ± 0.00502
313.15 K, 100 kPa, x2 = 0.6 | 0.6077 ± 0.00502
313.15 K, 100 kPa, x2 = 0.649 | 0.5813 ± 0.00478
313.15 K, 100 kPa, x2 = 0.701 | 0.5413 ± 0.00478
313.15 K, 100 kPa, x2 = 0.749 | 0.4921 ± 0.00454
313.15 K, 100 kPa, x2 = 0.799 | 0.426 ± 0.00454
313.15 K, 100 kPa, x2 = 0.849 | 0.345 ± 0.00454
313.15 K, 100 kPa, x2 = 0.899 | 0.248 ± 0.00478
313.15 K, 100 kPa, x2 = 0.951 | 0.128 ± 0.00478
313.15 K, 1000 kPa, x2 = 0.051 | 0.127 ± 0.00454
313.15 K, 1000 kPa, x2 = 0.098 | 0.234 ± 0.00454
313.15 K, 1000 kPa, x2 = 0.149 | 0.328 ± 0.00454
313.15 K, 1000 kPa, x2 = 0.198 | 0.411 ± 0.00454
313.15 K, 1000 kPa, x2 = 0.251 | 0.4777 ± 0.0043
313.15 K, 1000 kPa, x2 = 0.348 | 0.5696 ± 0.00502
313.15 K, 1000 kPa, x2 = 0.4 | 0.5987 ± 0.00502
313.15 K, 1000 kPa, x2 = 0.451 | 0.6176 ± 0.00502
313.15 K, 1000 kPa, x2 = 0.501 | 0.6242 ± 0.00502
313.15 K, 1000 kPa, x2 = 0.551 | 0.6223 ± 0.00502
313.15 K, 1000 kPa, x2 = 0.6 | 0.6059 ± 0.00502
313.15 K, 1000 kPa, x2 = 0.649 | 0.5827 ± 0.00478
313.15 K, 1000 kPa, x2 = 0.701 | 0.542 ± 0.00478
313.15 K, 1000 kPa, x2 = 0.749 | 0.4932 ± 0.00454
313.15 K, 1000 kPa, x2 = 0.799 | 0.426 ± 0.00454
313.15 K, 1000 kPa, x2 = 0.85 | 0.346 ± 0.0043
313.15 K, 1000 kPa, x2 = 0.899 | 0.248 ± 0.00478
313.15 K, 1000 kPa, x2 = 0.951 | 0.126 ± 0.00502
313.15 K, 10000 kPa, x2 = 0.051 | 0.135 ± 0.00478
313.15 K, 10000 kPa, x2 = 0.1 | 0.248 ± 0.00478
313.15 K, 10000 kPa, x2 = 0.15 | 0.344 ± 0.00454
313.15 K, 10000 kPa, x2 = 0.2 | 0.425 ± 0.00454
313.15 K, 10000 kPa, x2 = 0.25 | 0.4896 ± 0.00454
313.15 K, 10000 kPa, x2 = 0.301 | 0.5404 ± 0.00478
313.15 K, 10000 kPa, x2 = 0.35 | 0.5784 ± 0.00478
313.15 K, 10000 kPa, x2 = 0.399 | 0.6045 ± 0.00502
313.15 K, 10000 kPa, x2 = 0.451 | 0.6203 ± 0.00502
313.15 K, 10000 kPa, x2 = 0.501 | 0.6251 ± 0.00502
313.15 K, 10000 kPa, x2 = 0.551 | 0.6178 ± 0.00502
313.15 K, 10000 kPa, x2 = 0.599 | 0.6019 ± 0.00502
313.15 K, 10000 kPa, x2 = 0.65 | 0.5699 ± 0.00502
313.15 K, 10000 kPa, x2 = 0.751 | 0.4739 ± 0.0043
313.15 K, 10000 kPa, x2 = 0.801 | 0.413 ± 0.0043
313.15 K, 10000 kPa, x2 = 0.851 | 0.335 ± 0.00454
313.15 K, 10000 kPa, x2 = 0.901 | 0.238 ± 0.00478
313.15 K, 10000 kPa, x2 = 0.949 | 0.127 ± 0.00478
328.15 K, 1000 kPa, x2 = 0.05 | 0.128 ± 0.00478
328.15 K, 1000 kPa, x2 = 0.1 | 0.244 ± 0.00478
328.15 K, 1000 kPa, x2 = 0.15 | 0.345 ± 0.00478
328.15 K, 1000 kPa, x2 = 0.201 | 0.428 ± 0.00478
328.15 K, 1000 kPa, x2 = 0.25 | 0.496 ± 0.00502
328.15 K, 1000 kPa, x2 = 0.302 | 0.5534 ± 0.00502
328.15 K, 1000 kPa, x2 = 0.352 | 0.5928 ± 0.0055
328.15 K, 1000 kPa, x2 = 0.402 | 0.6206 ± 0.0055
328.15 K, 1000 kPa, x2 = 0.45 | 0.6375 ± 0.0055
328.15 K, 1000 kPa, x2 = 0.502 | 0.6437 ± 0.0055
328.15 K, 1000 kPa, x2 = 0.551 | 0.6361 ± 0.00526
328.15 K, 1000 kPa, x2 = 0.603 | 0.6173 ± 0.00526
328.15 K, 1000 kPa, x2 = 0.653 | 0.5904 ± 0.00502
328.15 K, 1000 kPa, x2 = 0.7 | 0.5518 ± 0.00454
328.15 K, 1000 kPa, x2 = 0.751 | 0.496 ± 0.00406
328.15 K, 1000 kPa, x2 = 0.802 | 0.4279 ± 0.00359
328.15 K, 1000 kPa, x2 = 0.9 | 0.2527 ± 0.00215
328.15 K, 1000 kPa, x2 = 0.95 | 0.1345 ± 0.00124

Source: the NIST ThermoML archive (doi:10.1016/j.jct.2005.07.011)
